Laboratory results as given in patent US20180200279A1, “INHIBITION OF HSV-1-ASSOCIATED CORNEAL NEOVASCULARIZATION USING INHIBITORS OF CYCLIN-DEPENDENT KINASE 9” (XAVIER UNIVERSITY OF LOUISIANA, priority 2014, published 2018).

Assays:
[1] = system: HSV-1 17syn+ ocular infection; assay: HSV-1 ocular infection mouse model, H&E histology of eyes (leukocytic infiltration, peripheral neovascularization); type: in vivo, Balb/c mice; details: day 25 PI; for mouse eyes exhibiting corneal neovascularization / mouse eyes exhibiting leukocytic infiltration: H&E sections; for histological score (scale 0-1) for leukocytic infiltrate and peripheral neovascularization: H&E stained corneal sections
Protocol: Histological score (0-1) was calculated based on leukocytic infiltration and peripheral neovascularization of hematoxylin & eosin (H&E) stained slides of mouse eyes on day 25 PI.
(§1) All experimental procedures were performed in accordance with the ARVO Resolution for the Use of Animals in Ophthalmic and Vision Research and were approved by the Xavier University Animal Care and Use Committee. Female 20 g Balb/c mice were obtained from Charles River Laboratories. Mice were allowed to equilibrate to their surroundings for 2 weeks and then were anesthetized by intramuscular administration of xylazine (6.6 mg/kg of body weight) and ketamine (100 mg/kg of body weight). The corneas were mildly scarified in a 2×2 cross-hatch pattern and each cornea was inoculated with 5×10^5 PFU of strain HSV 17syn+. […] DNA was collected by swabbing the eyes with filter paper, and the eyes were examined with a slit-lamp on PI days 2, 4, 7, 9, 11, 14, 18 and 25. Average neovascularization/eye was scored using the formula A=(C×0.4×L×π)/2 where C=clock hours of neovascularization; 30° arc is 1 (360° circle with a total of 12); L is the length of the longest neovessel, and A is the area of neovascularization. Students scored (by eye) the animals on the days indicated in a masked fashion using the slit-lamp, and images representative of each group were taken. Clinical scores based on epiphora, inflammation and discharge were calculated where 0=no manifestations, +1=slight manifestations, +2=moderate manifestations, and +3=severe manifestations. Mice were sacrificed with CO2 on day 25 post-infection, and eyes were harvested, sectioned, stained with hematoxylin and eosin (H&E) for histological analysis based on peripheral neovascularization and leukocytic infiltration where 0=clear eyes, 0.5=either peripheral neovascularization or leukocytic infiltration, and 1=both peripheral neovascularization and leukocytic infiltration. Ex ovo chick embryo chorioallantoic membrane collagen angiogenesis assays were performed using methods as previously described (Deryugina E I and Quigley J P. Chapter 2. Chick embryo chorioallantoic membrane models to quantify angiogenesis induced by inflammatory and tumor cells or purified effector molecules. Methods Enzymol. 444:21-41. 2008). Briefly, fertilized embryos (Charles River Laboratories, Charleston, S.C.) were incubated at 37.5° C. for 3 days, removed from their shell using a Dremel tool and placed into a covered weighing boat for 7 further days of incubation. […] Four collagen onplants were added per egg on at least 3 separate eggs. After three additional days of incubation, images were taken of each plug using a mini-Vid camera (LW Scientific; Lawrenceville, Ga.) and quantified in a masked fashion based on the percentage of grids that were positive for newly formed blood vessels.
To confirm the results in FIGS. 1A and 1B, sections of one cornea from each mouse was sectioned, stained with H&E and analyzed for leukocytic infiltrate and peripheral neovascularization of the cornea.

[2] = Ocular safety and tolerability of the formulation, rabbit eyes; type: in vivo; details: dose and frequency of the HSV-1 corneal neovascularization study
Protocol: (§2) This was assessed with the dose and frequency that was used in the chemotherapeutic study of HSV-1 corneal neovascularization. FIG. 1A presents the results of slit-lamp examination (SLE) scores of the corneas of the four treatment groups beginning on post-inoculation day 2 and continuing to 25 days following infection.

[3] = system: HSV-1; assay: In vitro viral inhibition (plaque) assay in CV-1 cells; type: cell-based
Protocol: Numbers of plaque-forming units (PFU) were determined in a standard plaque assay procedure using CV-1 cells.
The HSV-1 strain employed was 17 syn+. Before inoculation, numbers of plaque-forming units (PFU) were determined in a standard plaque assay procedure using CV-1 cells. Pooled primary human umbilical vein endothelial cells (HUVEC) were obtained from Lonza (Basel, Switzerland) and were cultured in Medium 199 (Life Technologies, Carlsbad, Calif.) supplemented with 20% heat-inactivated FBS, penicillin G (100 U/ml), streptomycin ([…]), 2 mM L-glutamine and 1:100 endothelial cell growth supplement (ECGS, BD Biosciences, Bedford, Mass.) on tissue culture plates coated with 0.2% gelatin up to passage 6. Cells were sub-passaged or harvested when they reached ˜80% confluence. For periods of serum-deprivation, HUVEC were incubated for 4 or 16 hours in serum-starvation medium (SSM) containing Medium 199 without phenol red or ECGS but containing 0.5% FBS unless otherwise indicated. In vitro viral inhibition assays with CV-1 cells were performed as previously described (Gong E Y. Methods for screening and profiling inhibitors of herpes simplex viruses. Methods Mol Biol. 1030:303-313. 2013).

[4] = system: HSV-1 17syn+ ocular infection; assay: HSV-1 ocular infection mouse model, combined clinical score (epiphora, inflammation, discharge); type: in vivo, Balb/c mice; details: 1% TFT, 0.01% flavopiridol, 0.1% DRB drops
Protocol: The combined clinical score was determined based on epiphora (excess tearing), inflammation and discharge. […], +1=slight manifestations, +2=moderate manifestations, and +3=severe manifestations.
as §1
FIG. 1B is the combined clinical score for the treatment groups based on epiphora (excess tearing), inflammation, and discharge.

[5] = Ocular safety and tolerability of the formulation, mouse eyes; type: in vivo; details: dose and frequency of the HSV-1 corneal neovascularization study
Protocol: as §2

[6] = system: HSV-1 17syn+; assay: Real-time PCR of HSV-1 DNA on ocular swabs of infected mice; type: in vivo, Balb/c mice; details: day 25 post infection; 1% TFT, 0.01% flavopiridol, 0.1% DRB drops; n=10
Protocol: SYBR Green semi-quantitative real-time PCR was performed on DNA samples eluted from swabs taken from mouse eyes on days 2, 4, 7, 9, 11, 14, 18 and 25 post infection with 5×10^5 PFU/eye HSV-1 17syn+ using primers specific for HSV-1 DNA polymerase.
All experimental procedures were performed in accordance with the ARVO Resolution for the Use of Animals in Ophthalmic and Vision Research and were approved by the Xavier University Animal Care and Use Committee. Female 20 g Balb/c mice were obtained from Charles River Laboratories. Mice were allowed to equilibrate to their surroundings for 2 weeks and then were anesthetized by intramuscular administration of xylazine (6.6 mg/kg of body weight) and ketamine (100 mg/kg of body weight). The corneas were mildly scarified in a 2×2 cross-hatch pattern and each cornea was inoculated with 5×10^5 PFU of strain HSV 17syn+. […] DNA was collected by swabbing the eyes with filter paper, and the eyes were examined with a slit-lamp on PI days 2, 4, 7, 9, 11, 14, 18 and 25. Average neovascularization/eye was scored using the formula A=(C×0.4×L×π)/2 where C=clock hours of neovascularization; 30° arc is 1 (360° circle with a total of 12); L is the length of the longest neovessel, and A is the area of neovascularization. Students scored (by eye) the animals on the days indicated in a masked fashion using the slit-lamp, and images representative of each group were taken. Clinical scores based on epiphora, inflammation and discharge were calculated where 0=no manifestations, +1=slight manifestations, +2=moderate manifestations, and +3=severe manifestations. […] Ex ovo chick embryo chorioallantoic membrane collagen angiogenesis assays were performed using methods as previously described (Deryugina E I and Quigley J P. Chapter 2. Chick embryo chorioallantoic membrane models to quantify angiogenesis induced by inflammatory and tumor cells or purified effector molecules. Methods Enzymol. 444:21-41. 2008). […]

[7] = system: HSV-1 17syn+ induced corneal neovascularization; assay: HSV-1 corneal neovascularization mouse model, slit-lamp examination score; type: in vivo, Balb/c mice; details: day 25 post infection; drops 4 times daily for 14 days; 1% TFT, 0.01% flavopiridol, 0.1% DRB; n=10
Protocol: Corneal neovascularization was determined in a masked fashion by slit lamp analysis on days 2, 4, 7, 9, 11, 14, 18, and 25 post-infection (PI) with 5×10^5 PFU/eye of HSV-1 17syn+ using the formula A=(C×0.4×L×n)/2 where C=clock hours of neovascularization; 30° arc is 1 (360° circle with a total of 12); L is the length of the longest neovessel, and A is the area of neovascularization.
All experimental procedures were performed in accordance with the ARVO Resolution for the Use of Animals in Ophthalmic and Vision Research and were approved by the Xavier University Animal Care and Use Committee. Female 20 g Balb/c mice were obtained from Charles River Laboratories. Mice were allowed to equilibrate to their surroundings for 2 weeks and then were anesthetized by intramuscular administration of xylazine (6.6 mg/kg of body weight) and ketamine (100 mg/kg of body weight). The corneas were mildly scarified in a 2×2 cross-hatch pattern and each cornea was inoculated with 5×10^5 PFU of strain HSV 17syn+. […] Average neovascularization/eye was scored using the formula A=(C×0.4×L×π)/2 where C=clock hours of neovascularization; 30° arc is 1 (360° circle with a total of 12); L is the length of the longest neovessel, and A is the area of neovascularization. Students scored (by eye) the animals on the days indicated in a masked fashion using the slit-lamp, and images representative of each group were taken. Clinical scores based on epiphora, inflammation and discharge were calculated where 0=no manifestations, +1=slight manifestations, +2=moderate manifestations, and +3=severe manifestations. […] Ex ovo chick embryo chorioallantoic membrane collagen angiogenesis assays were performed using methods as previously described (Deryugina E I and Quigley J P. Chapter 2. Chick embryo chorioallantoic membrane models to quantify angiogenesis induced by inflammatory and tumor cells or purified effector molecules. Methods Enzymol. 444:21-41. 2008). […]
This was assessed with the dose and frequency that was used in the chemotherapeutic study of HSV-1 corneal neovascularization. […]

## OC[C@H]1O[C@@H](n2cnc3cc(Cl)c(Cl)cc32)[C@H](O)[C@@H]1O [DRB, 5,6-Dichlorobenzimidazole-1-β-D-ribofuranoside]
[1]
  mouse eyes exhibiting corneal neovascularization: 0%
  mouse eyes exhibiting leukocytic infiltration: 10%
  histological score (scale 0-1) for leukocytic infiltrate and peripheral neovascularization: 0.25±0.134
[2]
  safety and tolerability of the formulation in the eye: safe and well-tolerated
[3]
  concentration at which HSV-1 replication was significantly reduced: 25 µM
[3]; read-out: average IC50 of HSV-1 replication
  IC50: 86.7 µM
[4]; day 11
  combined clinical score (epiphora, inflammation, discharge; 0 to +3): 0.00±0.0
[4]; day 25
  combined clinical score (epiphora, inflammation, discharge; 0 to +3): 0.042±0.60
[5]
  safety and tolerability of the formulation in the eye: safe and well-tolerated
[6]
  quantitative real-time PCR score (HSV-1 DNA) on ocular swabs: 0.042±0.60
[7]
  slit-lamp examination (SLE) score of corneal neovascularization: 0.042±0.60

## O=c1[nH]c(=O)n([C@H]2C[C@H](O)[C@@H](CO)O2)cc1C(F)(F)F [TFT, triflurothymidine]
[1]
  mouse eyes exhibiting corneal neovascularization: 0%
  mouse eyes exhibiting leukocytic infiltration: 30%
  histological score (scale 0-1) for leukocytic infiltrate and peripheral neovascularization: 0.278±0.088
[4]; day 11
  combined clinical score (epiphora, inflammation, discharge; 0 to +3): 0.002±0.41
[4]; day 25
  combined clinical score (epiphora, inflammation, discharge; 0 to +3): 0.00±0.00
[6]
  quantitative real-time PCR score (HSV-1 DNA) on ocular swabs: 0.0±0.0
[7]
  slit-lamp examination (SLE) score of corneal neovascularization: 0.0±0.0
